Values of other authors as cited in patent publication US20070015279A1, “Methods of Selecting Pancreatic Endocrine Cells Using Protein Synthesis Inhibitors” (AmCyte Inc., priority 2005, published 2007).
In brackets after ≈: the same amount, converted by molar mass.

Tests used:
[1] = system: 70S ribosome-associated ATPase activity; conditions: cited from earlier work
RbbA = conditions: control antibiotic; cited from earlier work
30S ribosomal subunit = conditions: 3 μg/mL; cited from earlier work
cells = conditions: cited from earlier work

| SMILES | inhibition of the ATPase activity of ribosomes compared to that of hygromycin B [1] | RbbA released, relative to the amount hygromycin B releases (RbbA) | reduction of the rate of 30S formation compared with control cells (30S ribosomal subunit) | IC50, viable cell number (cells) [µg/mL] |
| --- | --- | --- | --- | --- |
| [H]/N=C(/N)N[C@H]1[C@H](O)[C@@H](O)[C@H](O[C@@H]2O[C@@H](C)[C@](O)(C=O)[C@H]2O[C@@H]2O[C@@H](CO)[C@H](O)[C@@H](O)[C@@H]2NC)[C@@H](N/C(N)=N\[H])[C@@H]1O [Streptomycin, streptomycin] | about 20% | about 25% | – | – |
| NC[C@@H]1O[C@H](O[C@H]2[C@@H](O)[C@H](O[C@@H]3[C@@H](O)[C@H](N)C[C@H](N)[C@H]3O[C@H]3O[C@H](CO)[C@@H](O)[C@H](O)[C@H]3N)O[C@@H]2CO)[C@H](N)[C@@H](O)[C@@H]1O [paromomycin] | – | – | about 80% | 2 (≈ 3.25 µM) |
